Assay type in all cases: biochemical
In one assay the target is T1, FMS kinase (Homo sapiens, UniProt P07333).
T1 construct: purchased Invitrogen or Millipore
In words: FMS Kinase Assay. The conditions noted are these: read-out: FMS Enzyme Assay. The protocol: (§1) In this assay, the oxidation of NADH (thus the decrease at A340 nm) was continuously monitored spectrophometrically. The reaction mixture (100 μl) contained FMS (purchased from Invitrogen or Millipore, 6 nM), polyE4Y (1 mg/ml), MgCl2 (10 mM), pyruvate kinase (4 units), lactate dehydrogenase (0.7 units), phosphoenol pyruvate (1 mM) and NADH (0.28 mM) and ATP (500 μM) in a 90 mM Tris buffer containing 0.2% octyl-glucoside and 1% DMSO, pH 7.5. The inhibition reaction was started by mixing serial diluted test compound with the above reaction mixture. The absorption at 340 nm was monitored continuously for 4 hours at 30° C. on a Polarstar Optima or Synergy 2 plate reader. The reaction rate was calculated using the 2 to 3 h time frame. Percent inhibition was obtained by comparison of reaction rate with that of a control (i.e. with no test compound). IC50 values were calculated from a series of percent inhibition values determined at a range of inhibitor concentrations using software routines as implemented in the GraphPad Prism software package.

Assay [1] addresses T2, c-MET kinase (Seq. ID no. 2) (Homo sapiens, UniProt P08581).
T2 construct: purchased Invitrogen PV3143
Description: c-MET Kinase Assay (ADP production, pyruvate kinase/lactate dehydrogenase coupled). The following applies: read-out: cMET Enzyme Assay. The protocol: In this assay, the oxidation of NADH (thus the decrease at A340 nm) was continuously monitored spectrophometrically. […] Test compounds were incubated with C-Met (Seq. ID no. 2) and other reaction reagents at 22° C. for 0.5 h before ATP (100 μM) was added to start the reaction. The absorption at 340 nm was monitored continuously for 2 hours at 30° C. on Polarstar Optima plate reader (BMG). The reaction rate was calculated using the 1.0 to 2.0 h time frame. Percent inhibition was obtained by comparison of reaction rate with that of a control (i.e. with no test compound). IC50 values were calculated from a series of percent inhibition values determined at a range of inhibitor concentrations using software routines as implemented in the GraphPad Prism software package.

The target in assay [2] is KDR kinase (Seq ID No. 3) (Homo sapiens, UniProt P35968, DEL940-989/E990V). Description: KDR Kinase Assay (assays K1, K2, K3). The conditions noted are these: assay variant K1, K2 or K3 not stated; read-out: KDR Enzyme Assay.
A further assay addresses T3, PDGFRα kinase (Homo sapiens, UniProt P16234).
T3 construct: purchased Invitrogen
In words: PDGFRα Kinase Assay. The conditions noted are these: read-out: PDGFRa Enzyme Assay. The procedure:
as §1, with “Activity of PDGFRα kinase was determined by following the production of ADP from the kinase reaction through coupling with the pyruvate kinase/lactate dehydrogenase system. In” for “In”, “PDGFRα (Invitrogen, 10” for “FMS (purchased from Invitrogen or Millipore, 6”

The target in assay [3] is T4, c-KIT kinase (Seq. ID no. 1) (Homo sapiens, UniProt P10721).
T4 construct: purchased ProQinase
Description: c-KIT kinase Assay (ADP production, pyruvate kinase/lactate dehydrogenase coupled). The following applies: read-out: cKIT Enzyme Assay. The procedure:
In this assay, the oxidation of NADH (thus the decrease at A340 nm) was continuously monitored spectrophometrically. […] The absorption at 340 nm was monitored continuously for 0.5 hours at 30° C. on Polarstar Optima plate reader (BMG). The reaction rate was calculated using the 0 to 0.5 h time frame. Percent inhibition was obtained by comparison of reaction rate with that of a control (i.e. with no test compound). IC50 values were calculated from a series of percent inhibition values determined at a range of inhibitor concentrations using software routines as implemented in the GraphPad Prism software package.

For the next assay, the target named is T5, PDGFRβ (Homo sapiens, UniProt P09619).
T5 construct: purchased Invitrogen
Description: PDGFRβ Kinase Assay. The following applies: read-out: PDGFRb Enzyme Assay.

Structures are written as SMILES. Where only a bound is given, the exact number is not on record here.

T3 sequence (P16234 24-1089): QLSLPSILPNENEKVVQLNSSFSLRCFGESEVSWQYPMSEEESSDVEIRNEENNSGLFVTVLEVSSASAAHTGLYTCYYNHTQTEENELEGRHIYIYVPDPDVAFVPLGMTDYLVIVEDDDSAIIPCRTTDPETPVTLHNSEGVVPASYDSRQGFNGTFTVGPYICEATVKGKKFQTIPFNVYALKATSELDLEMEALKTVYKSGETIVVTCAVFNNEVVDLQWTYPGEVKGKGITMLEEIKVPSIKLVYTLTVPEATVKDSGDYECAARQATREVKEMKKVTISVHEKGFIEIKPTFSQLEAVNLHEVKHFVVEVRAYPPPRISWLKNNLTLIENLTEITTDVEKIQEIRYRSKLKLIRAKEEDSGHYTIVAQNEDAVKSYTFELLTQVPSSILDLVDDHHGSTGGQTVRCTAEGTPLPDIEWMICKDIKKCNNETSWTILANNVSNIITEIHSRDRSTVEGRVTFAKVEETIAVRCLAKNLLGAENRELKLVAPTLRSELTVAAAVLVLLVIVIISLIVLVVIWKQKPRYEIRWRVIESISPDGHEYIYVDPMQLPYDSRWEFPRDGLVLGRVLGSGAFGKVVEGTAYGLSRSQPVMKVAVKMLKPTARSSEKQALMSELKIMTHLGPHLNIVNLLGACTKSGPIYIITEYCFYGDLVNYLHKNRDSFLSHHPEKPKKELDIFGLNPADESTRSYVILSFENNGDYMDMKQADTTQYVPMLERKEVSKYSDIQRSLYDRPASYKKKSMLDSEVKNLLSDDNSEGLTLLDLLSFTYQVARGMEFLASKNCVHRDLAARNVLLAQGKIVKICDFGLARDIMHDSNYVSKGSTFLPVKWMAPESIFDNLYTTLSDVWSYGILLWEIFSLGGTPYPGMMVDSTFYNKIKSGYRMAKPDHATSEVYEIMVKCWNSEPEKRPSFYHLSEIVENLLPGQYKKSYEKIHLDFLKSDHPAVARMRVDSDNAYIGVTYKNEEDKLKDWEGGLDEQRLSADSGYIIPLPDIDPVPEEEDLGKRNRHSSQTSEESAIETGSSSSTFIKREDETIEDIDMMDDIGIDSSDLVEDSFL
T1 sequence (P07333 20-972): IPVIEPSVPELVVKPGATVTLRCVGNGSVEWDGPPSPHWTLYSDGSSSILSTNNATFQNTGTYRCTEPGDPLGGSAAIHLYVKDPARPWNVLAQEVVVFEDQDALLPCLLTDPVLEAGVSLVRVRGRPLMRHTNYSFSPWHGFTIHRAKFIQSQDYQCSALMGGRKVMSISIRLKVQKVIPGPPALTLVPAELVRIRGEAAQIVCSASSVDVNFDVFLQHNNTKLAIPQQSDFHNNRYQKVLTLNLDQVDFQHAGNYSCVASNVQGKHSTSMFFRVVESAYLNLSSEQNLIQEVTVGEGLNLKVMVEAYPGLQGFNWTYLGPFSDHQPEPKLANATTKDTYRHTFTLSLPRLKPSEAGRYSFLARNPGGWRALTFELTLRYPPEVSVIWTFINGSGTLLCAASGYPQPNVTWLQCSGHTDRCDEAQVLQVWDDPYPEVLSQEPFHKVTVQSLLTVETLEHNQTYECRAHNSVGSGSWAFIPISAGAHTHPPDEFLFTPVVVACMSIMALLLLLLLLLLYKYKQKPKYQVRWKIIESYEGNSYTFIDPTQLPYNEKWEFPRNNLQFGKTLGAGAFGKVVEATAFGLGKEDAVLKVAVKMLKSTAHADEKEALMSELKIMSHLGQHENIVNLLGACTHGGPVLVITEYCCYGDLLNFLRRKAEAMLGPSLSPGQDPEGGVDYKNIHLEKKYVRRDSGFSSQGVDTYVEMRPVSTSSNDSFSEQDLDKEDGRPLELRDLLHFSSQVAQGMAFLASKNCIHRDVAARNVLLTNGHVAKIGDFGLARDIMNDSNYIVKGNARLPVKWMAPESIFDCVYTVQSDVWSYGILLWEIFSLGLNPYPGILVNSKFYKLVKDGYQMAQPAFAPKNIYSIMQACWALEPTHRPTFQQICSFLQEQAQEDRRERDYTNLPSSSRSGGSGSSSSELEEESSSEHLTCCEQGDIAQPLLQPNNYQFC
T2 sequence (P08581 with tags, fused parts or gaps): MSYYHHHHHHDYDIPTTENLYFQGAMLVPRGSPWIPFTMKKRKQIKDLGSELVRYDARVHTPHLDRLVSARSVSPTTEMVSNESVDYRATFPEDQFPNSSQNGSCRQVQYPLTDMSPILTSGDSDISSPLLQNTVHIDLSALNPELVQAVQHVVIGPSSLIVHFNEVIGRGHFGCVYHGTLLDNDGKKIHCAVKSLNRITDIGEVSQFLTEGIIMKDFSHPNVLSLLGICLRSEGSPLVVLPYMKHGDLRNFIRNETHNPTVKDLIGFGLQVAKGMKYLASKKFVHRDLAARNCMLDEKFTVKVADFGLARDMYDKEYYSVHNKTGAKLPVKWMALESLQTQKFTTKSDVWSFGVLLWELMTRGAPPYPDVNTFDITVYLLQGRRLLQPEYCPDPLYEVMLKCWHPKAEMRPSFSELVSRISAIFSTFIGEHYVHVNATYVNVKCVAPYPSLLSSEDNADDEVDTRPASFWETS
Sequence of KDR kinase (Seq ID No. 3) (P35968 with tags, fused parts or gaps DEL940-989/E990V): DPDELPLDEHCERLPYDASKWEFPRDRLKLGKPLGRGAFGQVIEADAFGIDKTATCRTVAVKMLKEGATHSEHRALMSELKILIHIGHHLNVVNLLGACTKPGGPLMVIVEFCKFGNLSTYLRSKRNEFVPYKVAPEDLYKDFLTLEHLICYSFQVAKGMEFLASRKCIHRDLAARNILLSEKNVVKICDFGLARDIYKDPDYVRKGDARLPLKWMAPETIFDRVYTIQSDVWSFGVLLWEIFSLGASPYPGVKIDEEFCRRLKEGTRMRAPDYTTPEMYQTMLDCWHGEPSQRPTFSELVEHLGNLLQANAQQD
T5 sequence (P09619 33-1106): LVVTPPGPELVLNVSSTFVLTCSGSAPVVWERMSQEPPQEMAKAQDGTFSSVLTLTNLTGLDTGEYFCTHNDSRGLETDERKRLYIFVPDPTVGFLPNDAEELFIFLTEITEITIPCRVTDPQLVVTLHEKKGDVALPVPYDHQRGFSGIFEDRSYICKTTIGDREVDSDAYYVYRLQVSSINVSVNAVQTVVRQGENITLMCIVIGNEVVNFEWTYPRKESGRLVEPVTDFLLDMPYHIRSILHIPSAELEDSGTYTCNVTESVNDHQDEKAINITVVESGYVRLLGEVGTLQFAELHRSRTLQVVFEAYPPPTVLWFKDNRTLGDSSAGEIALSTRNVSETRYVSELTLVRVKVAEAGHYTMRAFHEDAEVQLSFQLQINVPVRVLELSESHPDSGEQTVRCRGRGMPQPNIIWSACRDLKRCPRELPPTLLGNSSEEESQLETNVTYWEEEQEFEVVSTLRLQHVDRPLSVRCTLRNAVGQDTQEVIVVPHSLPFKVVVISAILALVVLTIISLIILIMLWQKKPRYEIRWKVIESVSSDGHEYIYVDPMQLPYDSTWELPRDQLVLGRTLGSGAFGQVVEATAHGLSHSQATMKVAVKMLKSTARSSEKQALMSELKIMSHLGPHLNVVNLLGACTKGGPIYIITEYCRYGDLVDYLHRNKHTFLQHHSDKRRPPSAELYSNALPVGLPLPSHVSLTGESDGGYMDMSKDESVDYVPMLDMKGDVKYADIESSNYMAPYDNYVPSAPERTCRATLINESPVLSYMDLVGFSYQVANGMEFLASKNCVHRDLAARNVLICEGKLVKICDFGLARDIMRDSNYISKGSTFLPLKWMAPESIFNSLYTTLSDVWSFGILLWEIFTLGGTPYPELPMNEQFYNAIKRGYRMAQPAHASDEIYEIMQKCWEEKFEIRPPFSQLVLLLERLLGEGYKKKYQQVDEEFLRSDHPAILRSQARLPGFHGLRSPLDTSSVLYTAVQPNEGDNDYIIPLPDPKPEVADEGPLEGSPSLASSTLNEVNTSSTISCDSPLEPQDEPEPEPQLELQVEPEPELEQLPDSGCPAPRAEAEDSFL
T4 sequence (P10721 with tags, fused parts or gaps): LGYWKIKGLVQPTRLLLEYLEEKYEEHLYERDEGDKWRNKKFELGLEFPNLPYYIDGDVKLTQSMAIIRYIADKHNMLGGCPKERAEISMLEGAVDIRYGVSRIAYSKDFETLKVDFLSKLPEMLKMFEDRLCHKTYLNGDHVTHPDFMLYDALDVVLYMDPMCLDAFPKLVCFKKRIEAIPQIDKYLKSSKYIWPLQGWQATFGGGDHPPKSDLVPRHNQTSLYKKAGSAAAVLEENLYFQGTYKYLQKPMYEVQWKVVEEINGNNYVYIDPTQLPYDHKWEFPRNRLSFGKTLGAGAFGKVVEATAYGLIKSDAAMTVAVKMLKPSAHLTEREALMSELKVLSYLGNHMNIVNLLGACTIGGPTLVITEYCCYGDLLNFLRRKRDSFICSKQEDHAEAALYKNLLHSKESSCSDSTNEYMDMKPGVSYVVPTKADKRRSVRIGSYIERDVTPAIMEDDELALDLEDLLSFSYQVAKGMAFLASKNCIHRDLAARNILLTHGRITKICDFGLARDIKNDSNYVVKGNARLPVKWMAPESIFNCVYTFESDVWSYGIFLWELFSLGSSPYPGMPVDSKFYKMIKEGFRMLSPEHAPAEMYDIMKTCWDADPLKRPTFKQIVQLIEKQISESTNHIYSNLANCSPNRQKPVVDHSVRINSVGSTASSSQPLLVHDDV

Consider `Cc1cc(F)c(NC(=O)C2(C(=O)Nc3ccc(F)cc3)CC2)cc1Oc1nccc(-c2cnn(C)c2)n1` [Example 52, N-(2-fluoro-4-methyl-5-(4-(1-methyl-1H-pyrazol-4-yl)pyrimidin-2-yloxy)phenyl)-N′-(4-fluorophenyl)cyclopropane-1,1-dicarboxamide], for which the IC50 was less than 10000 nM on FMS kinase, less than 10000 nM in assay [1] and less than 10 µM in assay [2].
Take `Cn1cc(-c2cc(Oc3ccc(NC(=O)C4(C(=O)Nc5ccc(F)c(F)c5)CC4)c(F)c3)ccn2)cn1` [Example 24, N-(3,4-difluorophenyl)-N′-(2-fluoro-4-(2-(1-methyl-1H-pyrazol-4-yl)pyridin-4-yloxy)phenyl)cyclopropane-1,1-dicarboxamide]: the IC50 in assay [1] was less than 2000 nM.
For the molecule `Cc1cc(-c2cc(Oc3ccc(NC(=O)C4(C(=O)Nc5ccc(F)cc5)CC4)c(F)c3)ccn2)on1` [Example 59, N-(2-fluoro-4-(2-(3-methylisoxazol-5-yl)pyridin-4-yloxy)phenyl)-N′-(4-fluorophenyl)cyclopropane-1,1-dicarboxamide], the IC50 on FMS kinase is less than 200 nM; in assay [1] it was less than 200 nM; in assay [2] it was less than 10 µM.
On to `COC[C@H](NC(=O)C1(C(=O)Nc2ccc(Oc3ccnc(-c4cnn(C)c4)c3)c(F)c2)CC1)c1ccc(F)cc1` [Example 36, N-(3-fluoro-4-(2-(1-methyl-1H-pyrazol-4-yl)pyridin-4-yloxy)phenyl)-N′((R)-1-(4-fluorophenyl)-2-methoxyethyl)cyclopropane-1,1-dicarboxamide], for which the IC50 in assay [1] is less than 2000 nM.
With `Cc1c(Oc2ccnc(-c3cnn(C)c3)c2)ccc(NC(=O)C2(C(=O)Nc3ccc(F)cc3)CC2)c1F` [Example 32, N-(2-fluoro-3-methyl-4-(2-(1-methyl-1H-pyrazol-4-yl)pyridin-4-yloxy)phenyl)-N-(4-fluorophenyl)cyclopropane-1,1-dicarboxamide], the IC50 on FMS kinase is less than 2000 nM; in assay [1], less than 2000 nM; in assay [2] it was less than 10 µM.
As to `Cn1cc(-c2cc(Oc3ccc(NC(=O)C4(C(=O)Nc5ccc(F)cc5)CC4)c(F)c3F)ccn2)cn1` [Example 1, N-(2,3-difluoro-4-(2-(1-methyl-1H-pyrazol-4-yl)pyridin-4-yloxy)phenyl)-N′-(4-fluorophenyl)cyclopropane-1,1-dicarboxamide], the IC50 on PDGFRα kinase is less than 200 nM; in assay [3] it was less than 2 µM; at PDGFRβ, less than 2000 nM; in assay [1] it was less than 200 nM; in assay [2], less than 2 µM.
Turning to `Cn1cc(-c2cc(Oc3ccc(NC(=O)C4(C(=O)Nc5ccc(F)c(C#N)c5)CC4)c(F)c3)ccn2)cn1` [Example 26, N-(3-cyano-4-fluorophenyl)-N′-(2-fluoro-4-(2-(1-methyl-1H-pyrazol-4-yl)pyridin-4-yloxy)phenyl)cyclopropane-1,1-dicarboxamide], the IC50 in assay [1] is less than 10000 nM.
Same read-out and setting: under `Cn1cc(-c2cc(Oc3ccc(NC(=O)C4(C(=O)Nc5ccc(F)cc5F)CC4)c(F)c3)ccn2)cn1` [Example 27, N-(2,4-difluorophenyl)-N′-(2-fluoro-4-(2-(1-methyl-1H-pyrazol-4-yl)pyridin-4-yloxy)phenyl)cyclopropane-1,1-dicarboxamide] stands less than 2000 nM.
Consider `Cn1cc(-c2cc(Oc3ccc(NC(=O)C4(C(=O)NCc5ccccc5)CC4)c(F)c3F)ccn2)cn1` [Example 3, N-benzyl-N′-(2,3-difluoro-4-(2-(1-methyl-1H-pyrazol-4-yl)pyridin-4-yloxy)phenyl)cyclopropane-1,1-dicarboxamide], for which the IC50 at PDGFRα kinase is less than 2000 nM; at PDGFRβ, less than 10000 nM; in assay [2], less than 2 µM.
Turning to `O=C(Cc1ccc(F)cc1)NC(=O)Nc1ccc(Oc2ccnc(-c3nc(C(F)(F)F)c[nH]3)c2)cc1` [Example 39, 1-(2-(4-fluorophenyl)acetyl)-3-(4-(2-(4-(trifluoromethyl)-1,1-imidazol-2-yl)pyridin-4-yloxy)phenyl)urea], the IC50 is less than 200 nM on PDGFRα kinase and less than 2000 nM on PDGFRβ.
Turning to `Cn1cc(-c2cc(Oc3ccc(NC(=O)C4(C(=O)Nc5cccs5)CC4)c(F)c3)ccn2)cn1` [Example 35, N-(2-fluoro-4-(2-(1-methyl-1H-pyrazol-4-yl)pyridin-4-yloxy)phenyl)-N′-(thiophen-2-yl)cyclopropane-1,1-dicarboxamide], in assay [1], the IC50 was less than 2000 nM.
On the same count and under the same terms, with `Cn1cc(-c2cc(Oc3ccc(NC(=O)C4(C(=O)Nc5ccc(F)cc5Cl)CC4)c(F)c3)ccn2)cn1` [Example 29, N-(2-chloro-4-fluorophenyl)-N′-(2-fluoro-4-(2-(1-methyl-1H-pyrazol-4-yl)pyridin-4-yloxy)phenyl)cyclopropane-1,1-dicarboxamide] the figure was less than 2000 nM; with `C[C@H](NC(=O)C1(C(=O)Nc2ccc(Oc3ccnc(-c4cnn(C)c4)c3)c(F)c2)CC1)c1ccc(F)cc1` [Example 33, N-(3-fluoro-4-(2-(1-methyl-1H-pyrazol-4-yl)pyridin-4-yloxy)phenyl)-N′-((S)-1-(4-fluorophenyl)ethyl)cyclopropane-1,1-dicarboxamide], less than 2000 nM.
With `CN(C(=O)C1(C(=O)Nc2ccc(F)cc2)CC1)c1ccc(Oc2ccnc(-c3cnn(C)c3)c2)c(F)c1` [Example 58, N-(3-fluoro-4-(2-(1-methyl-1H-pyrazol-4-yl)pyridin-4-yloxy)phenyl)-N′-(4-fluorophenyl)-N-methylcyclopropane-1,1-dicarboxamide], the IC50 on PDGFRα kinase was less than 10000 nM; in assay [3], less than 10 µM; in assay [1], less than 10000 nM; in assay [2], less than 10 µM.
Consider `Cn1cc(-c2cc(Oc3ccc(NC(=O)C4(C(=O)Nc5ccc(C(F)(F)F)cc5)CC4)c(F)c3)ccn2)cn1` [Example 25, N-(2-fluoro-4-(2-(1-methyl-1H-pyrazol-4-yl)pyridin-4-yloxy)phenyl)-N′-(4-(trifluoromethyl)phenyl)cyclopropane-1,1-dicarboxamide], for which, in assay [1], the IC50 is less than 2000 nM.
On the same count and under the same terms, under `O=C(Nc1ccc(F)cc1)C1(C(=O)Nc2ccc(Oc3ccnc(-c4c[nH]nn4)c3)cc2F)CC1` [Example 60, N-(4-(2-(1H-1,2,3-triazol-4-yl)pyridin-4-yloxy)-2-fluorophenyl)-N′-(4-fluorophenyl)cyclopropane-1,1-dicarboxamide] stands less than 2000 nM; under `Cn1cc(-c2cc(Oc3ccc(NC(=O)C4(C(=O)Nc5ccc(C#N)cc5)CC4)c(F)c3)ccn2)cn1` [Example 28, N-(4-cyanophenyl)-N′-(2-fluoro-4-(2-(1-methyl-1H-pyrazol-4-yl)pyridin-4-yloxy)phenyl)cyclopropane-1,1-dicarboxamide], less than 10000 nM; under `CC[C@H](NC(=O)C1(C(=O)Nc2ccc(Oc3ccnc(-c4cnn(C)c4)c3)c(F)c2)CC1)c1ccc(F)cc1` [Example 34, N-(3-fluoro-4-(2-(1-methyl-1H-pyrazol-4-yl)pyridin-4-yloxy)phenyl)-N′-((S)-1-(4-fluorophenyl)propyl)cyclopropane-1,1-dicarboxamide], less than 2000 nM.

For the origin of these results see US8486951B2 (Deciphera Pharmaceuticals, LLC, priority 2008, dated 2013).
